Earlier results, collected in patent publication US20160074380A1, “Treatment Of Neurodegenerative Diseases With Combination Of Laquinimod And Fingolimod” (TEVA PHARMACEUTICAL INDUSTRIES LTD., priority 2014, published 2016).

Test system: mouse-cultured cortical cells
Settings: pretreatment; Di Menna, 2013; cited from earlier work

Row | Structure (SMILES) | protection of neurons against NMDA toxicity
1 | CCCCCCCCCCCCC/C=C/[C@@H](O)[C@@H](N)COP(=O)(O)O [S1P, sphingosine 1-phosphate] | protected neurons against NMDA toxicity
2 | CCCCCCCCc1ccc(CC[C@](N)(CO)COP(=O)(O)O)cc1 [FTY 720-P, fingolimod-phosphate] | protected neurons against NMDA toxicity
